As usually defined, the IC50 is the concentration at which inhibition is half-maximal.

Counter-ions that a name gives are not always drawn. Like-named read-outs stand apart in the source and are kept apart here.

The target of one data set is T1, human Granzyme B (hGzmB) (Homo sapiens, UniProt P10144).
T1 construct: purchased Froelich Lab, Northshore University Health Systems Research Institute, Evanston, Ill., USA
Description: Human Granzyme B enzymatic inhibition assay (fluorogenic, kinetic). It counts as biochemical. Put shortly: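 Human Granzyme B preincubated with compound for 30 min total (5 min shaking, 20 min bench, then reaction temperature). Fluorogenic substrate added and read kinetically, 25 cycles at 1-min intervals. Percent inhibition at one or two concentrations or 8–12-point 3-fold dose response from 20 uM, replicates, with IC50 by non-linear regression.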

The nature of data set [1]: Kinetic solubility determination in PBS. The note with it: PBS 1X pH 7.4, 2.0% DMSO, 24 hour incubation at ambient temperature; for solubility at 24 h: phosphate buffered saline (PBS 1×), 21 °C, pH 7.4, aqueous buffer, kinetic from dmso stock. It counts as physicochemical. Here is the method: Kinetic solubility buffer (phosphate buffered saline (PBS, 1×) at pH 7.4) was prepared from PBS (10×) solution, (Fisher Scientific, Pittsburgh, Pa., USA, 10×), by adding PBS (50 mL, 10×) to approximately water (450 mL HPLC grade). The volume of the solution was then adjusted to 500 mL for a total dilution factor of 1:10 and a final PBS concentration of 1×. The pH of the final solution (PBS (1×)) was measured and found to be 7.4.
A DMSO stock solution (typically 10 mM or greater) was used for each compound to be tested. A final DMSO concentration of 2.0% and maximum theoretical compound concentration of typically 200 μM (or greater) was achieved by diluting an aliquot (6 μl) of each stock with kinetic solubility buffer (294 μl, PBS (1×) at pH 7.4) using a liquid handling system (Hamilton STARlet, Hamilton Robotics, Inc., Reno, Nev., USA) and incubated directly in a solubility filter plate (Millipore, Billerica, Mass., USA). Following 24 hour incubation at ambient temperature (20.5-21.7° C.), each sample was vacuum filtered. The filtrate was injected into the chemiluminescent nitrogen detector for quantification (Automated Discovery Workstation, Analiza, Inc., Cleveland, Ohio, USA). Each result was reported both in μM and μg/mL units. Three separate on-board performance indicating standards were assayed in triplicate with each test compound to ensure test results were within the acceptable range.
The equimolar nitrogen response of the detector was calibrated using standards which spanned the dynamic range of the instrument from 0.08 to 4500 μg/ml nitrogen. Each filtrate was quantified with respect to this calibration curve. Each calculated solubility value was corrected for background nitrogen present in the DMSO, and buffer used to prepare each sample. All reported values for samples containing adjacent nitrogen atoms in a ring structure were corrected for the expected non-equimolar response. Each calculated solubility result assumed that each sample was free of nitrogen containing impurities and was stable under the assay conditions. Analyses were performed at Analiza Inc. (Cleveland, Ohio, USA) by published methods (Bhattachar, S. N., et al, J. Pharma. BioMed Anal. 41:152-7 2006).

Where [2] appears, read: activity codes, Table 7, read-out: IC50 Activity Range.
Where [3] appears, read: read-out: Solubility in aqueous PBS Buffer (1X, pH 7.4).
Setting [4] is: read-out: Solubility in aqueous PBS Buffer (1X, pH 7.4), ug/mL.

T1 sequence (P10144 21-247): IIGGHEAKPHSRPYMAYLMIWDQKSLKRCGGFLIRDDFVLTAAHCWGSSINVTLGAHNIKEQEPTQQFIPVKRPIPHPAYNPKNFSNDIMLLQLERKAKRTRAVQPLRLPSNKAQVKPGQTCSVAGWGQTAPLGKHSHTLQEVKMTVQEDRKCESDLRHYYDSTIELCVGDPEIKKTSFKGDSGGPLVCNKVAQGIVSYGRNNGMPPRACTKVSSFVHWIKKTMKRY

For the compound `CC[C@H](C)[C@H](NC(=O)C(CCC(=O)O)c1ccccc1)C(=O)NCC(=O)N1c2ccccc2C[C@H]1C(=O)NCc1nn[nH]n1` (single isomer, unassigned) [Example A54-2], on human Granzyme B (hGzmB) (setting [2]), the half-inhibitory concentration (IC50) was < 100 nM. Further, in data set [1], the “Solubility in aqueous PBS Buffer (1X, pH 7.4), uM” value is recorded as >750 uM and the “Solubility in aqueous PBS Buffer (1X, pH 7.4), ug/mL” value is on record as >454 ug/mL.

Take `CC[C@H](C)[C@H](NC(=O)Cc1ccccc1)C(=O)NCC(=O)N1c2cc(NC(=O)CCC(=O)O)ccc2C[C@H]1C(=O)NCc1nn[nH]n1` [Example C22, 3-{[(2S)-1-{2-[(2S,3S)-3-Methyl-2-(2-Phenylacetamido)Pentanamido]Acetyl}-2-[(2H-1,2,3,4-Tetrazol-5-Ylmethyl)Carbamoyl]-2,3-Dihydro-1H-Indol-6-Yl]Carbamoyl}Propanoic Acid]: the IC50 on human Granzyme B (hGzmB) (setting [2]) is < 100 nM. The solubility at 24 h in data set [1] (setting [3]) is > 750 µM; in data set [1] (setting [4]), > 486 µg/mL.

On to `CC[C@H](C)[C@H](NC(=O)C(CCC(=O)O)c1ccccc1)C(=O)NCC(=O)N1c2ccccc2C[C@H]1C(=O)NCc1nn[nH]n1` (single isomer, unassigned) [Example A54-1], for which, on human Granzyme B (hGzmB) (setting [2]), the IC50 was < 100 nM. The solubility at 24 h in data set [1] (setting [3]) is 451 µM; in data set [1] (setting [4]) it was 273 µg/mL.

As for `CC[C@H](C)[C@H](NC(=O)CN(C)CC(=O)O)C(=O)NCC(=O)N1c2ccccc2C[C@H]1C(=O)NCc1nn[nH]n1` [Example A44, 2-[Methyl({[(1S,2S)-2-Methy-1-({2-Oxo-2-[(2S)-2-[(2H-1,2,3,4-Tetrazol-5-Ylmethyl)Carbamoyl]-2,3-Dihydro-1H-Indol-1-Yl]Ethyl}Carbamoyl)Butyl]Carbamoyl}Methyl)Amino]Acetic Acid], at human Granzyme B (hGzmB) (setting [2]), the IC50 lay in the range of 100 to 1000 nM. The figures for the solubility at 24 h in data set [1] (setting [3]) and in data set [1] (setting [4]) were 724 µM and 467 µg/mL, respectively.

For the compound `CC[C@H](C)[C@H](NC(=O)Cc1ccc(N)cc1)C(=O)NCC(=O)N1c2ccccc2C[C@H]1C(=O)NCc1nn[nH]n1` [Example A8, (2S)-1-{2-[(2S,3S)-2-[2-(4-Aminophenyl)Acetamido]-3-Methylpentanamido]Acetyl}-N-(2H-1,2,3,4-Tetrazol-5-Ylmethyl)-2,3-Dihydro-1H-Indole-2-Carboxamide Hydrochloride], at human Granzyme B (hGzmB) (setting [2]), the IC50 was 100 to 1000 nM. The solubility at 24 h in data set [1] (setting [3]) was > 150 µM; in data set [1] (setting [4]), > 88 µg/mL.

For `CC[C@H](C)[C@H](NC(=O)/C=C\C(=O)O)C(=O)NCC(=O)N1c2ccccc2C[C@H]1C(=O)NCc1nn[nH]n1` [Example A24, (2Z)-3-{[(1S,2S)-2-Methyl-1-({2-Oxo-2-[(2S)-2-[(2H-1,2,3,4-Tetrazol-5-Ylmethyl)Carbamoyl]-2,3-Dihydro-1H-Indol-1-Yl]Ethyl}Carbamoyl)Butyl]Carbamoyl}Prop-2-Enoic Acid], the IC50 at human Granzyme B (hGzmB) (setting [2]) is < 100 nM. Besides, the solubility at 24 h was determined as 719 µM in data set [1] (setting [3]) and 441 µg/mL in data set [1] (setting [4]).

Regarding `CC[C@H](C)[C@H](NC(=O)Cc1ccccc1)C(=O)NCC(=O)N1c2ccccc2C[C@H]1C(=O)NCc1c[nH]nn1` [Example B1, (2S)-1-{2-[(2S,3S)-3-Methyl-2-(2-Phenylacetamido)Pentanamido]Acetyl}-N-(1H-1,2,3-Triazol-4-Ylmethyl)-2,3-Dihydro-1H-Indole-2-Carboxamide], the half-maximal inhibitory concentration (IC50) at human Granzyme B (hGzmB) (setting [2]) lay in the range of 100 to 1000 nM. In addition, the solubility at 24 h in data set [1] (setting [3]) was determined as 97 µM; in data set [1] (setting [4]) it was 62 µg/mL.

Turning to `O=C(O)CCC(=O)N[C@H](C(=O)NCC(=O)N1c2ccccc2C[C@H]1C(=O)NCc1nn[nH]n1)C1CCCC1` [Example A45, 3-{[(S)-Cyclopentyl({2-Oxo-2-[(2S)-2-[(2H-1,2,3,4-Tetrazol-5-Ylmethyl)Carbamoyl]-2,3-Dihydro-1H-Indol-1-Yl]Ethyl}Carbamoyl)Methyl]Carbamoyl}Propanoic Acid], the IC50 at human Granzyme B (hGzmB) (setting [2]) is < 100 nM. Besides, the figures for the solubility at 24 h in data set [1] (setting [3]) and in data set [1] (setting [4]) were 682 µM and 359 µg/mL, respectively.

As to `CC[C@H](C)[C@H](NC(=O)CCC(=O)O)C(=O)NCC(=O)N1c2ccccc2C[C@H]1C(=O)NCc1c[nH]nn1` [Example A16, 3-{[(1S,2S)-2-Methyl-1-({2-Oxo-2-[(2S)-2-[(1H-1,2,3-Triazol-4-Ylmethyl)Carbamoyl]-2,3-Dihydro-1H-Indol-1-Yl]Ethyl}Carbamoyl)Butyl]Carbamoyl}Propanoic Acid], the IC50 at human Granzyme B (hGzmB) (setting [2]) is < 100 nM. The solubility at 24 h in data set [1] (setting [3]) was > 750 µM; in data set [1] (setting [4]), > 385 µg/mL.

Turning to `CC[C@H](C)[C@H](NC(=O)CCCC(=O)O)C(=O)NCC(=O)N1c2ccccc2C[C@H]1C(=O)NCc1nn[nH]n1` [Example A14, 4-{[(1S,2S)-2-Methyl-1-({2-Oxo-2-[(2S)-2-[(2H-1,2,3,4-Tetrazol-5-Ylmethyl)Carbamoyl]-2,3-Dihydro-1H-Indol-1-Yl]Ethyl}Carbamoyl)Butyl]Carbamoyl}Butanoic Acid], the IC50 on human Granzyme B (hGzmB) (setting [2]) is < 100 nM. Moreover, the results for the solubility at 24 h in data set [1] (setting [3]) and in data set [1] (setting [4]) were 107 µM and 57 µg/mL, respectively.

As for `CC[C@H](C)[C@H](NC(=O)Cc1ccc(CC(=O)O)cc1)C(=O)NCC(=O)N1c2ccccc2C[C@H]1C(=O)NCc1nn[nH]n1` [Example A34, 2-[4-({[(1S,2S)-2-Methyl-1-({2-Oxo-2-[(2S)-2-[(2H-1,2,3,4-Tetrazol-5-Ylmethyl)Carbamoyl]-2,3-Dihydro-1H-Indol-1-Yl]Ethyl}Carbamoyl)Butyl]Carbamoyl}Methyl)Phenyl]Acetic Acid], the IC50 at human Granzyme B (hGzmB) (setting [2]) was < 100 nM. Also, the values for the solubility at 24 h in data set [1] (setting [3]) and in data set [1] (setting [4]) were > 750 µM and > 443 µg/mL, respectively.

For the compound `CC[C@H](C)[C@H](NC(=O)Cc1ccccc1)C(=O)N[C@@H](CCC(=O)O)C(=O)N1c2ccccc2C[C@H]1C(=O)NCc1nn[nH]n1` [Example C13, (4S)-4-[(2S,3S)-3-Methyl-2-(2-Phenylacetamido)Pentanamido]-5-Oxo-5-[(2S)-2-[(2H-1,2,3,4-Tetrazol-5-Ylmethyl)Carbamoyl]-2,3-Dihydro-1H-Indol-1-Yl]Pentanoic Acid], the IC50 on human Granzyme B (hGzmB) (setting [2]) was in the range of 100 to 1000 nM. The figures for the solubility at 24 h in data set [1] (setting [3]) and in data set [1] (setting [4]) were > 750 µM and > 454 µg/mL, respectively.

Consider `CC[C@H](C)[C@H](NC(=O)CC(C)CC(=O)O)C(=O)NCC(=O)N1c2ccccc2C[C@H]1C(=O)NCc1nn[nH]n1` (single isomer, unassigned) [Example A17-1], for which the IC50 at human Granzyme B (hGzmB) (setting [2]) is 100 to 1000 nM. In addition, the solubility at 24 h in data set [1] (setting [3]) was > 750 µM; in data set [1] (setting [4]), > 407 µg/mL.

Turning to `C[C@@H](O)[C@H](NC(=O)Cc1ccccc1)C(=O)NCC(=O)N1c2ccccc2C[C@H]1C(=O)NCc1nn[nH]n1` [Example C2, (2S)-1-{2-[(2S,3R)-3-Hydroxy-2-(2-Phenylacetamido)Butanamido]Acetyl}-N-(2H-1,2,3,4-Tetrazol-5-Ylmethyl)-2,3-Dihydro-1H-Indole-2-Carboxamide], on human Granzyme B (hGzmB) (setting [2]), the IC50 is > 10000 nM.

Regarding `CC(C)(C)[C@H](NC(=O)Cc1ccccc1)C(=O)NCC(=O)N1c2ccccc2C[C@H]1C(=O)NCc1nn[nH]n1` [Example C6, (2S)-1-{2-[(2S)-3,3-Dimethyl-2-(2-Phenylacetamido)Butanamido]Acetyl}-N-(2H-1,2,3,4-Tetrazol-5-Ylmethyl)-2,3-Dihydro-1H-Indole-2-Carboxamide], on human Granzyme B (hGzmB) (setting [2]), the IC50 was in the range of 1000 to 10000 nM.

As to `CC[C@H](C)[C@H](NC(=O)[C@@H](N)CC(=O)O)C(=O)NCC(=O)N1c2ccccc2C[C@H]1C(=O)NCc1nn[nH]n1` [Example A37, (3S)-3-Amino-3-{[(1S,2S)-2-Methyl-1-({2-Oxo-2-[(2S)-2-[(2H-1,2,3,4-Tetrazol-5-Ylmethyl)Carbamoyl]-2,3-Dihydro-1H-Indol-1-Yl]Ethyl}Carbamoyl)Butyl]Carbamoyl}Propanoic Acid], on human Granzyme B (hGzmB), the IC50 lay in the range of 100 to 1000 nM.

Regarding `CO[C@H](C)[C@H](NC(=O)Cc1ccccc1)C(=O)NCC(=O)N1c2ccccc2C[C@H]1C(=O)NCc1nn[nH]n1` [Example C7, (2S)-1-{2-[(2S,3R)-3-Methoxy-2-(2-Phenylacetamido)Butanamido]Acetyl}-N-(2H-1,2,3,4-Tetrazol-5-Ylmethyl)-2,3-Dihydro-1H-Indole-2-Carboxamide], the IC50 at human Granzyme B (hGzmB) (setting [2]) is 1000 to 10000 nM.

The values above are taken from patent publication US10329324B2 (viDA Therapeutics Inc., priority 2013, dated 2019).
